The values below come from patent US5792780A, “Azole compounds, their production and use” (Takeda Chemical Industries, Ltd., priority 1993, dated 1998).

The subject of the test is Candida albicans TA. Description: protective effect against experimental infection in mice (survival rate 7 days after infection). Format: in vivo, Crj:CDF1 mice. As to conditions: po, 168 h, 0.5% CMC, survival 7 days after infection. The method, then: Test Method: Five-week-old Crj:CDF1 mice were inoculated with the minimum lethal dose of Candida albicans TA intravenously. The test compound was suspended in a solution of 0.2% or 0.5% sodium carboxymethylcellulose (CMC). The suspension was administered orally once immediately after infection. The activity was expressed in terms of ED50 values calculated by the Reed and Muench method from the survival rate 7 days after infection.
Test Method: Five-week-old Crj:CDF1 mice were inoculated with the minimum lethal dose of Candida albicans TA intravenously. The test compound was suspended in a solution of 0.5% sodium carboxymethylcellulose (CMC). The suspension was administered orally once immediately after infection. The activity was expressed in terms of ED50 values calculated by the Reed and Muench method from the survival rate 7 days after infection.

The mark [1] stands for this setting: Table 9, compounds of formula (VI), P.O. once immediately after infection.
The mark [2] stands for this setting: Table 8, P.O. once immediately after infection.

Consider `C[C@@H](n1ccn(-c2ccc(OC(F)(F)C(F)F)cc2)c1=O)[C@](O)(Cn1cncn1)c1ccc(F)cc1` [Reference Example 45, 1-[(1R,2R)-2-(4-fluorophenyl)-2-hydroxy-1-methyl-3-(1H-1,2,4-triazol-1-yl)propyl]-3-[4-(1,1,2,2-tetrafluoroethoxy)phenyl]-2(1H,3H)-imidazolone], for which the ED50 under setting [1] was 0.18 mg/kg.

Under setting [2], `C[C@@H](N1CCN(c2ccc(OC(F)(F)C(F)F)cc2)C1=O)[C@](O)(Cn1cncn1)c1ccccc1F` [Compound 16, 1-[(1R,2R)-2-(2-fluorophenyl)-2-hydroxy-1-methyl-3-(1H-1,2,4-triazol-1-yl)propyl]-3-[4-(1,1,2,2-tetrafluoroethoxy)phenyl]-2-imidazolidinone] had an ED50 of 0.35 mg/kg.

`C[C@@H](n1ccn(-c2ccc(OC(F)(F)C(F)F)cc2)c1=O)[C@](O)(Cn1cncn1)c1ccccc1F` [Reference Example 49, 1-[(1R,2R)-2-(2-fluorophenyl)-2-hydroxy-1-methyl-3-(1H-1,2,4-triazol-1-yl)propyl]-3-[4-(1,1,2,2-tetrafluoroethoxy)phenyl]-2(1H,3H)-imidazolone]: the ED50 under setting [1] was determined as 0.18 mg/kg.

With `C[C@@H](N1CCN(c2ccc(OC(F)(F)C(F)F)cc2)C(=O)C1=O)[C@](O)(Cn1cncn1)c1ccc(F)cc1F` [Compound 15, 1-[(1R,2R)-2-(2,4-difluorophenyl)-2-hydroxy-1-methyl-3-(1H-1,2,4-triazol-1-yl)propyl]-4-[4-(1,1,2,2-tetrafluoroethoxy)phenyl]-2,3-piperazinedione], the ED50 under setting [2] was 2 mg/kg.

`C[C@@H](N1CCN(c2ccc(OCC(F)(F)C(F)F)cc2)C1=O)[C@](O)(Cn1cncn1)c1ccc(F)cc1` [Compound 19, 1-[(1R,2R)-2-(4-fluorophenyl)-2-hydroxy-1-methyl-3-(1H-1,2,4-triazol-1-yl)propyl]-3-[4-(2,2,3,3-tetrafluoropropoxy)phenyl]-2-imidazolidinone]: the ED50 under setting [2] worked out at 0.77 mg/kg.

The compound `C[C@@H](N1CCN(c2ccc(OC(F)(F)C(F)F)cc2)C1=O)[C@](O)(Cn1cncn1)c1ccc(F)cc1` [Compound 18, 1-[(1R,2R)-2-(4-fluorophenyl)-2-hydroxy-1-methyl-3-(1H-1,2,4-triazol-1-yl)propyl]-3-[4-(1,1,2,2-tetrafluoroethoxy)phenyl]-2-imidazolidinone] gave an ED50 under setting [2] of 0.35 mg/kg.

The compound `C[C@@H](n1ccn(-c2ccc(OCC(F)(F)C(F)F)cc2)c1=O)[C@](O)(Cn1cncn1)c1ccccc1F` [Reference Example 50, 1-[(1R,2R)-2-(2-fluorophenyl)-2-hydroxy-1-methyl-3-(1H-1,2,4-triazol-1-yl)propyl]-3-[4-(2,2,3,3-tetrafluoropropoxy)phenyl]-2(1H,3H)-imidazolone] displayed an ED50 under setting [1] of 0.32 mg/kg.

For `C[C@@H](N1CCN(c2ccc(OCC(F)(F)C(F)F)cc2)C1=O)[C@](O)(Cn1cncn1)c1ccccc1F` [Compound 17, 1-[(1R,2R)-2-(2-fluorophenyl)-2-hydroxy-1-methyl-3-(1H-1,2,4-triazol-1-yl)propyl]-3-[4-(2,2,3,3-tetrafluoropropoxy)phenyl]-2-imidazolidinone], under setting [2], the ED50 was 0.65 mg/kg.

In turn, `C[C@@H](N1CCN(c2ccc(OCC(F)(F)C(F)F)cc2)C(=O)C1=O)[C@](O)(Cn1cncn1)c1ccc(F)cc1F` [Compound 14, 1-[(1R,2R)-2-(2,4-difluorophenyl)-2-hydroxy-1-methyl-3-(1H-1,2,4-triazol-1-yl)propyl]-4-[4-(2,2,3,3-tetrafluoropropoxy)phenyl]-2,3-piperazinedione] yielded an ED50 under setting [2] of 2.8 mg/kg.

Compound `C[C@@H](n1ccn(-c2ccc(OCC(F)(F)C(F)F)cc2)c1=O)[C@](O)(Cn1cncn1)c1ccc(F)cc1` [Reference Example 46, 1-[(1R,2R)-2-(4-fluorophenyl)-2-hydroxy-1-methyl-3-(1H-1,2,4-triazol-1-yl)propyl]-3-[4-(2,2,3,3-tetrafluoropropoxy)phenyl]-2(1H,3H)-imidazolone] came in with an ED50 under setting [1] of 0.32 mg/kg.

As a reminder, the ED50 is the midpoint of the dose-response relation. Higher therefore signals a need for a large dose.
